In patent US11802120B2, “Fused cyclic urea derivatives as CRHR2 antagonist” (RaQualia Pharma Inc., priority 2018, dated 2023):

Target: T1, human CRHR2-alpha (Homo sapiens, UniProt Q13324)
T1 sequence (Q13324 1-411): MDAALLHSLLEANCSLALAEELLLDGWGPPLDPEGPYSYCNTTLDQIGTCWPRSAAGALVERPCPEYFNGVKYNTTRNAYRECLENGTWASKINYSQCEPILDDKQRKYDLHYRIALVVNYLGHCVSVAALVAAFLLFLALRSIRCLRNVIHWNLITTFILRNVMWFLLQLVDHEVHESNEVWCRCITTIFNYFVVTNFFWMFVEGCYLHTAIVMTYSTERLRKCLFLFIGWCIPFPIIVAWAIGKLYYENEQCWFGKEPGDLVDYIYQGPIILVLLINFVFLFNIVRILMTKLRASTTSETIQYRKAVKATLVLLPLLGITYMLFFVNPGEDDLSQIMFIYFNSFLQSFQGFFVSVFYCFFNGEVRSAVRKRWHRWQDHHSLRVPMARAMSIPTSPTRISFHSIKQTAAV
Assay: cAMP functional assay for human CRHR2 (LANCE Ultra cAMP, TR-FRET)
Format: cell-based
Settings: CHO-K1 cells expressing human CRHR2-alpha, agonist human urocortin2 at EC80, cAMP; read-out: IC50 against CRHR2
Method: cAMP functional assay for human CRHR1 and CRHR2
The ability of the compounds of this invention to inhibit either CRHR2 or CRHR1 is assessed by 3′,5′-cyclic adenosine monophosphate (cAMP) production in cells using the LANCE Ultra cAMP assay kit (ParkinElmer), which are designed based on the homogeneous time-resolved fluorescence resonance energy transfer (TR-FRET) immunoassay.
CHO-K1 (Chinese hamster ovary) cells stably expressing either human CRHR2-alpha (DiscoveRX, Cat. 95-0048C2) or human CRHR1-beta (DiscoveRX, Cat. 95-0047C2) are grown in HAM's F12 media supplemented with 10% fetal bovine serum (FBS), 100 units/mL penicillin, 100 microg/mL hygromycin and 0.5 microg/mL geneticin at 37° C. in 5% CO2 humidified incubator to 80% confluence. After 7 hours starvation treatment in culture media containing 0.1% FBS, the cells are washed with Hanks balanced salt solution (HBSS) and cryopreserved.
For cAMP assay, frozen cells are thawed and washed with HBSS, followed by resuspended in assay buffer (HBSS containing 0.1% bovine serum albumin, 0.5 mM isobutylmethylxanthine and 5 mM Hepes, pH 7.4) at the appropriate concentration for the assay. The cell suspensions are plated on 384-well microplates (Greiner Bio-One) at a density of 4,000 cells per well. After preincubating the cells with various concentrations of the compounds for 30 min at 25° C., an assay buffer containing EC80 concentration of each agonist is added and the cells are incubated for 30 min at 25° C. Human urocortin2 (Peptide Institute) and CRF (Peptide Institute) are used as agonists for CRHR2 and CRHR1, respectively. For the termination of assay, europium-labeled cAMP tracer and ULight (registered trademark) dye labeled cAMP antibodies, both prepared with Lance-Ultra cAMP detection reagent (Perkin Elmer) are added in the plate and incubate for 60 min at 25° C. After incubation, TR-FRET signal is detected by EnVision plate reader (PerkinElmer). The IC50 values for compounds are calculated from dose-response curves by fitting the percent inhibition using XLfit (ID Business Solutions).

Row | SMILES | IC50 [nM]
1 | COc1ccc(-n2c(=O)n(C[C@H]3CC[C@H](NC(=O)c4cc(Cl)cnc4C)CC3)c3cccc(C)c32)cn1 [Example 58, 5-chloro-N-((1r,4r)-4-((3-(6-methoxypyridin-3-yl)-4-methyl-2-oxo-2,3-dihydro-1H-benzo[d]imidazol-1-yl)methyl)cyclohexyl)-2-methylnicotinamide] | < 300
2 | Cc1ncc(Cl)cc1C(=O)N[C@H]1CC[C@H](Cn2c(=O)n(-c3ccc(Br)nc3)c3ccccc32)CC1 [Example 66, N((1r,4r)-4-((3-(6-bromopyridin-3-yl)-2-oxo-2,3-dihydro-1H-benzo[d]imidazol-1-yl)methyl)cyclohexyl)-5-chloro-2-methylnicotinamide] | < 300
3 | C=Cc1ccc(-n2c(=O)n(C[C@H]3CC[C@H](NC(=O)c4cc(Cl)cnc4C)CC3)c3ccccc32)cn1 [Example 70, 5-chloro-2-methyl-N-((1r,4r)-4-((2-oxo-3-(6-vinylpyridin-3-yl)-2,3-dihydro-1H-benzo[d]imidazol-1-yl)methyl)cyclohexyl)nicotinamide] | < 300
4 | CCc1ccc(-n2c(=O)n(C[C@H]3CC[C@H](NC(=O)c4cc(Cl)cnc4C)CC3)c3ccccc32)cn1 [Example 72, 5-chloro-N-((1r,4r)-4-((3-(6-ethylpyridin-3-yl)-2-oxo-2,3-dihydro-1H-benzo[d]imidazol-1-yl)methyl)cyclohexyl)-2-methylnicotinamide] | < 300
5 | C=Cc1cc(-n2c(=O)n(C[C@H]3CC[C@H](NC(=O)c4cc(Cl)cnc4C)CC3)c3ccccc32)ccn1 [Example 82, 5-chloro-2-methyl-N-((1r,4r)-4-((2-oxo-3-(2-vinylpyridin-4-yl)-2,3-dihydro-1H-benzo [d]imidazol-1-yl)methyl)cyclohexyl)nicotinamide] | < 300
6 | Cc1ncc(Cl)cc1C(=O)N[C@H]1CC[C@H](Cn2c(=O)n(-c3ccc(C4=CCOCC4)nc3)c3ccccc32)CC1 [Example 84, 5-chloro-N-((1r,4r)-4-((3-(6-(3,6-dihydro-2H-pyran-4-yl)pyridin-3-yl)-2-oxo-2,3-dihydro-1H-benzo[d]imidazol-1-yl)methyl)cyclohexyl)-2-methylnicotinamide] | < 300
7 | Cc1ncc(Cl)cc1C(=O)N[C@H]1CC[C@H](Cn2c(=O)n(-c3ccc(C4CC4)nc3)c3ccccc32)CC1 [Example 86, 5-chloro-N-((1r,4r)-4-((3-(6-cyclopropylpyridin-3-yl)-2-oxo-2,3-dihydro-1H-benzo[d]imidazol-1-yl)methyl)cyclohexyl)-2-methylnicotinamide] | < 300
8 | Cc1ncc(Cl)cc1C(=O)N[C@H]1CC[C@H](Cn2c(=O)n(-c3ccc(-c4ccccc4)nc3)c3ccccc32)CC1 [Example 89, 5-chloro-2-methyl-N-((1r,4r)-4-((2-oxo-3-(6-phenylpyridin-3-yl)-2,3-dihydro-1H-benzo[d]imidazol-1-yl)methyl)cyclohexyl)nicotinamide] | < 300
9 | Cc1ncc(Cl)cc1C(=O)N[C@H]1CC[C@H](Cn2c(=O)n(-c3ccc(-c4ccccc4CO)nc3)c3ccccc32)CC1 [Example 90, 5-chloro-N-((1r,4r)-4-((3-(6-(2-(hydroxymethyl)phenyl)pyridin-3-yl)-2-oxo-2,3-dihydro-1H-benzo[d]imidazol-1-yl)methyl)cyclohexyl)-2-methylnicotinamide] | < 300
10 | Cc1ncc(Cl)cc1C(=O)N[C@H]1CC[C@H](Cn2c(=O)n(-c3ccc(N4CCCC(O)C4)nc3)c3ccccc32)CC1 (some centres unmarked) [Example 95, 5-chloro-N-((1r,4r)-4-((3-(6-(3-hydroxypiperidin-1-yl)pyridin-3-yl)-2-oxo-2,3-dihydro-1H-benzo[d]imidazol-1-yl)methyl)cyclohexyl)-2-methylnicotinamide] | < 300
11 | Cc1ncc(Cl)cc1C(=O)N[C@H]1CC[C@H](Cn2c(=O)n(-c3ccc(N4CCC(O)CC4)nc3)c3ccccc32)CC1 [Example 96, 5-chloro-N-((1r,4r)-4-((3-(6-(4-hydroxypiperidin-1-yl)pyridin-3-yl)-2-oxo-2,3-dihydro-1H-benzo[d]imidazol-1-yl)methyl)cyclohexyl)-2-methylnicotinamide] | < 300
